The values that follow come from patent US20250049924A1, “Abuse-Deterrent Pharmaceutical Composition with Aversion Properties” (AARDVARK THERAPEUTICS INC., priority 2022, published 2025).

Data set [1] has as its system bitter taste receptors in the oral cavity, including the tongue. Nature of the data set: volunteer snorting experiment with DA in saline (granules or neat powder). Format: in vivo, human. The procedure: One brave co-inventor attempted to “snort” a formulation of DA in either a granule form having talc as an excipient as DA is provided in clinical trials (Aardvark Therapeutics, Inc phase 1 and 2 studies for obesity) for oral administration in a capsule designed to prevent DA material from exposure to bitter taste receptors in the oral cavity, including the tongue. In a first round of “dose escalation” of a saline having DA in granules starting around […] of DA (wherein a granule weighs about 0.1 mg including the talc based excipients) in the volume of liquid snorted, it took a dose of around 0.1 mg DA (10 granules). The three attempts were 1 granule, 5 granules and lastly 10 granules. […] This sensation peaked around 15-20 min, and lasted about an hour. Was certainly annoying and not pleasant.
In view of the results with a granule formulation of DA, the day before filing this patent application, the co-inventor volunteer tried the snorting experiment again, but this time, using neat DA that was a powder dissolved in saline. Just one “snort” was attempted of 1 mg of DA in saline. It should be noted that the completed clinical trials of DA used a dose of 200 mg of DA taken orally in a capsule that dissolves in the stomach, avoiding mouth exposure. The report from our volunteer indicated: “Just snorted 1.0 mg of ARD-101 [DA] API [active pharmaceutical ingredient] . . . OMG.
So terrible. […] Like with the granules, there is no immediate aversive sensation. Maybe around minute 7-8 after snorting dose, the bitterness became apparent, with peak effect starting around minute 10-15. […] Drinking water almost makes it worse!
It's been over 30 min since the snorting and the bitterness has hardly diminished. If I ate breakfast, I might have vomited already.
A later text read: “It's been almost 6 hours and I still taste it. Bleh.”

A short description of data set [2]: systemic exposure of DA after oral administration (completed clinical trials and preclinical studies). The text has this:
This is in contrast to a controlled substance, such as an amphetamine, which is known to provide a bolus dose to the brain to provider a “high” experience for the drug abuser. This allows a drug abuser, snorting the disclosed formulation to experience a bolus dose of the controlled substance for a “high” while simultaneously, or shortly thereafter, experience a disgusting, revolting, vomit-inducing, sickening (but not life-threatening) massively unpleasant experience from the aversive agent, such as DA.
DB is commercially available but has not been developed for pharmaceutical use. However, DA has been used as an active pharmaceutical agent as a bitter receptor agonist, not as an aversive, in formulations that avoid oral cavity exposure.

A short description of data set [3]: systemic (intravenous) administration of DA, NOAEL. In kind it is in vivo. The conditions noted are these: systemic administration (i.e., intravenous administration).
The test system of data set [4] is rats. Nature of the data set: animal toxicology studies, DA orally by gavage, behaviour. Format: in vivo. The conditions noted are these: oral gavage by less skilled technicians.
Where [5] appears, read: DA granules in saline, around 0.1 mg DA (10 granules).
[6] abbreviates: neat DA powder dissolved in saline, 1 mg, one snort.

On to `CC(=O)[O-].CC[N+](CC)(CC(=O)Nc1c(C)cccc1C)Cc1ccccc1` [DA, Denatonium acetate], for which the “dose of DA that it took for an effect in dose escalation” value in data set [1] (DA granules (talc excipient) in saline, snorted, attempts of 1, 5 and 10 granules) is recorded as “about 0.1 mg”. Besides, in data set [1] (setting [5]), the duration of sensation result was “about an hour”; the nausea or vomiting entry is listed as “did not elicit nausea or vomiting”; the sensation after snorting result is “extremely bitter taste in the back of my throat and posterior portion of my tongue”; the “time of peak of sensation” value lay in the range of 15 to 20 min. The “time to noticing the bitter taste” value in data set [1] (setting [5]) was at most 10 min. Further, the “effect compared with the granules” value in data set [1] (neat DA 1 mg versus granules snorted before) was “significantly and measurably more disgusting”. The “deterrence of snorting, volunteer's judgement” value in data set [1] (neat DA powder dissolved in saline, 1 mg) is on record as “measurable deterrent to snorting”. Also, in data set [1] (setting [6]), the sensation after snorting entry was “extreme bitterness in the back of the throat and the posterior tongue”; the “start of peak effect” value was 10 to 15 min; the “time after snorting at which bitterness became apparent” value was in the range of 7 to 8 min; the “time after snorting at which it is still tasted” value is about 6 h. Further, in data set [1] (setting [6]), the “time since snorting at which bitterness has hardly diminished” value was “over 30 min”. For the same compound, the “part of the dose administered found systemically” value in data set [2] (oral administration) is reported as “less than 1%”. In addition, the “pharmacokinetics, distribution after oral exposure” value in data set [2] (oral exposure) is “substantially gut restricted”. Also, the “NOAEL (no adverse effect level)” value in data set [3] is on record as “high”. For the same compound, the “behavior of the animals on gavage” value in data set [4] was “highly aversive and desperate behavior”.
